# Experimental data reported in article PMC10712727, “Safety, Tolerability, and Pharmacokinetics of Senaparib, a Novel PARP1/2 Inhibitor, in Chinese Patients With Advanced Solid Tumors: A Phase I Trial” (The Oncologist, 2023).
# Entries after “also recorded” stand apart in the source; their conditions may differ.
# Columns and labels:
# [1] = tested on: patients with advanced solid tumors; assay: Dose-limiting toxicities, MTD and RP2D determination (modified 3 + 3 dose escalation); assay type: in vivo
# Method: Dose escalation was conducted using a modified Fibonacci 3 + 3 method (Supplementary Fig. S1).[17] Patients were administered oral senaparib from a planned starting dose of 2 mg once daily (QD), with preliminary dose escalation to 120 mg via nine dose groups, in order of their entry into the study. At a given dose level, each patient received a single dose of senaparib followed by a 7-day washout period. They then entered a continuous dosing period to confirm the safety and PK profile, in which they received senaparib QD from day 1 to day 21 of each 3-week cycle. Progression to the next higher dose required approval from the Data Safety Monitoring Committee (DSMC) upon review of the safety and PK data of the previous dose. […]
# DLTs were predefined toxicities (Supplementary Table S2) recorded over the 7 days following the single-dose administration of senaparib and during the first treatment cycle (day 1-day 21) for each dose group in the dose-escalation period only. […] Plasma concentrations of senaparib were determined using high-performance liquid chromatography-tandem mass spectrometry. Tumor response was assessed every 6 weeks per RECIST v1.1,[16] recording objective response rate (ORR), disease control rate (DCR), duration of response (DOR), and progression-free survival (PFS) by dose level for all patients and for those harboring BRCA^mut+ tumors.
# [2] = tested on: anticancer animal models; set-up: method as in doi:10.1158/1538-7445.am2022-1399; settings: in vivo studies (anticancer animal models); cited from earlier work
structure (smiles),measurement,setting,value
O=C(c1cc(Cn2c(=O)[nH]c(=O)c3c(F)cccc32)ccc1F)N1CCN(c2ncccn2)CC1 [Senaparib],Dose-limiting toxicities (DLTs),"[1]; DLT observation period, dose escalation, 2-120 mg QD and 50 mg BID",No dose-limiting toxicities were observed; also recorded: No DLTs were observed
same,Maximum tolerated dose (MTD),[1]; doses up to 120 mg QD,not reached
same,Potency relative to the PARP inhibitor olaparib,[2],20 fold
